Assay results taken from patent US10471046B2, “Method for treating, preventing, or reducing the risk of skin infection” (Melinta Subsidiary Corp., priority 2014, dated 2019).
Values after ≈ are worked out from the molar mass of the structure shown.

Test system: S. aureus
Assay: Minimum inhibitory concentrations (MICs) for S. aureus of exemplary compounds (Table 2)
Format: cell-based
Conditions: Staphylococcus aureus, minimum inhibitory concentrations for S. aureus; read-out: MICs
How it was run: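 Growth of S. aureus in media with or without compound, by broth microdilution in microtiter trays following NCCLS M7-A5 guidelines. Values are MICs in μg/mL.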

Row | MIC | Compound
1 | 32 µg/mL (≈ 66.5 µM) | COc1cc(CN(C)Cc2ccoc2)ccc1-c1ccc(N2C[C@H](CNC(C)=O)OC2=O)cc1F [Compound 4034, N-(3-{2-Fluoro-4′-[(furan-3-ylmethyl-methyl-amino)-methyl]-2′-methoxy-biphenyl-4-yl}-2-oxo-oxazolidin-5-(S)-ylmethyl)-acetamide]
2 | 0.25 µg/mL (≈ 0.585 µM) | CC(=O)NC[C@H]1CN(c2ccc(-c3ccc(Cn4ccnn4)c(F)c3)c(F)c2)C(=O)O1 [Compound 1009, N-[3-(2,3′-Difluoro-4′-[1,2,3]triazol-1-ylmethyl-biphenyl-4-yl)-2-oxo-oxazolidin-5-(S)-ylmethyl]-acetamide]
3 | 0.5 µg/mL (≈ 0.903 µM) | CC(=O)NC[C@H]1CN(c2ccc(-c3ccc(CNCc4c(C(F)(F)F)nn(C)c4Cl)cc3)c(F)c2)C(=O)O1 [Compound 4125, N-[3-(4′-{[(5-Chloro-1-methyl-3-trifluoromethyl-1H-pyrazol-4-ylmethyl)-amino]-methyl}-2-fluoro-biphenyl-4-yl)-2-oxo-oxazolidin-5-(S)-ylmethyl]-acetamide]
4 | 0.25 µg/mL (≈ 0.512 µM) | CC(=O)NC[C@H]1CN(c2ccc(-c3ccc(CS(=O)(=O)c4nnnn4C)cc3)c(F)c2)C(=O)O1 [Compound 2024, N-{3-[2-Fluoro-4′-(1-methyl-1H-tetrazole-5-sulfonylmethyl)-biphenyl-4-yl]-2-oxo-oxazolidin-5-(S)-ylmethyl}-acetamide]
5 | 4 µg/mL (≈ 8.57 µM) | CC(=O)NC[C@H]1CN(c2ccc(-c3ccc(CNCCCn4ccnn4)cc3)c(F)c2)C(=O)O1 [Compound 4264, N-(3-{2-Fluoro-4′-[(3-[1,2,3]triazol-1-yl-propylamino)-methyl]-biphenyl-4-yl}-2-oxo-oxazolidin-5-(S)-ylmethyl)-acetamide]
6 | 0.5 µg/mL (≈ 1.18 µM) | CC(=O)NC[C@H]1CN(c2ccc(-c3ccc(Cn4nnnc4N)cc3)c(F)c2)C(=O)O1 [Compound 1025, N-{3-[4′-(5-Amino-tetrazol-1-ylmethyl)-2-fluoro-biphenyl-4-yl]-2-oxo-oxazolidin-5-(S)-ylmethyl}-acetamide]
7 | 1 µg/mL (≈ 2.12 µM) | CC(=O)NC[C@H]1CN(c2ccc(-c3ccc(CNCc4nccs4)c(F)c3)c(F)c2)C(=O)O1 [Compound 4154, N-[3-(2,3′-Difluoro-4′-{[(thiazol-2-ylmethyl)-amino]-methyl}-biphenyl-4-yl)-2-oxo-oxazolidin-5-(S)-ylmethyl]-acetamide]
8 | 1 µg/mL (≈ 2.37 µM) | CC(=O)NC[C@H]1CN(c2ccc(-c3ccc(Cn4ccnc4C)cc3)c(F)c2)C(=O)O1 [Compound 1066, N-{3-[2-Fluoro-4′-(2-methyl-imidazol-1-ylmethyl)-biphenyl-4-yl]-2-oxo-oxazolidin-5-(S)-ylmethyl}-acetamide]
9 | 4 µg/mL (≈ 8.29 µM) | CC(=O)NC[C@H]1CN(c2ccc(-c3ccc(CNCCc4scnc4C)cc3)c(F)c2)C(=O)O1 [Compound 4096, N-[3-(2-Fluoro-4′-{[2-(4-methyl-thiazol-5-yl)-ethylamino]-methyl}-biphenyl-4-yl)-2-oxo-oxazolidin-5-(S)-ylmethyl]-acetamide]
10 | 2 µg/mL (≈ 3.18 µM) | COc1cc(CN(Cc2ccc(-c3ccc(N4C[C@H](CNC(C)=O)OC4=O)cc3F)cc2)Cc2ccc(O)c(OC)c2)ccc1O [Compound 4037, N-[3-(4′-{[Bis-(4-hydroxy-3-methoxy-benzyl)-amino]-methyl}-2-fluoro-biphenyl-4-yl)-2-oxo-oxazolidin-5-(S)-ylmethyl]-acetamide]
11 | 2 µg/mL (≈ 4.15 µM) | CC(=O)NC[C@H]1CN(c2ccc(-c3ccc(CNCc4ccc(Cl)cc4)cc3)c(F)c2)C(=O)O1 [Compound 4063, N-(3-{4′-[(4-Chloro-benzylamino)-methyl]-2-fluoro-biphenyl-4-yl}-2-oxo-oxazolidin-5-(S)-ylmethyl)-acetamide]
12 | 1 µg/mL (≈ 1.85 µM) | CC(=O)NC[C@H]1CN(c2ccc(-c3ccc(Cn4cnc5c(NCC(F)F)ncnc54)cc3)c(F)c2)C(=O)O1 [Compound 1103, N-(3-{4′-[6-(2,2-Difluoro-ethylamino)-purin-9-ylmethyl]-2-fluoro-biphenyl-4-yl}-2-oxo-oxazolidin-5-(S)-ylmethyl)-acetamide]
13 | 2 µg/mL (≈ 3.64 µM) | CSCCNc1ncnc2c1ncn2Cc1ccc(-c2ccc(N3C[C@H](CNC(C)=O)OC3=O)cc2F)cc1 [Compound 1108]
14 | 1 µg/mL (≈ 1.9 µM) | CC(=O)NC[C@H]1CN(c2ccc(-c3ccc(CNCc4ccc(Br)nc4)cc3)c(F)c2)C(=O)O1 [Compound 4181, N-[3-(4′-{[(6-Bromo-pyridin-3-ylmethyl)-amino]-methyl}-2-fluoro-biphenyl-4-yl)-2-oxo-oxazolidin-5-(S)-ylmethyl]-acetamide]
15 | 1 µg/mL (≈ 2.08 µM) | CC(=O)NC[C@H]1CN(c2ccc(-c3ccc(C(=O)NCc4ccccn4)c(F)c3)c(F)c2)C(=O)O1 [Compound 4190, 4′-[5-(S)-(Acetylamino-methyl)-2-oxo-oxazolidin-3-yl]-3,2′-difluoro-biphenyl-4-carboxylic acid (pyridin-2-ylmethyl)-amide]
16 | 0.25 µg/mL (≈ 0.501 µM) | CC(=O)NC[C@H]1CN(c2ccc(-c3ccc(CNCCCSc4cnn[nH]4)cc3)c(F)c2)C(=O)O1 [Compound 5002, N-[3-(2-Fluoro-4′-{[3-(3H-[1,2,3]triazol-4-ylsulfanyl)-propylamino]-methyl}-biphenyl-4-yl)-2-oxo-oxazolidin-5-(S)-ylmethyl]-acetamide]

Row | MIC | Compound
17 | 2 µg/mL (≈ 4.32 µM) | CC(=O)NC[C@H]1CN(c2ccc(-c3ccc(CNC(C)c4ccncc4)cc3)c(F)c2)C(=O)O1 (mixture of isomers) [Compound 4159, N-(3-{2-Fluoro-4′-[(1-pyridin-4-(R/S)-yl-ethylamino)-methyl]-biphenyl-4-yl}-2-oxo-oxazolidin-5-(S)-ylmethyl)-acetamide]
18 | 2 µg/mL (≈ 4.72 µM) | CC(=O)NC[C@H]1CN(c2ccc(-c3ccc(CCn4ccnn4)cc3)c(F)c2)C(=O)O1 [Compound 1001, N-{3-[2-Fluoro-4′-(2-[1,2,3]triazol-1-yl-ethyl)-biphenyl-4-yl]-2-oxo-oxazolidin-5-(S)-ylmethyl}-acetamide]
19 | 2 µg/mL (≈ 4.2 µM) | CCN(Cc1ccncc1)Cc1ccc(-c2ccc(N3C[C@H](CNC(C)=O)OC3=O)cc2F)cc1 [Compound 4035, N-(3-{4′-[(Ethyl-pyridin-4-ylmethyl-amino)-methyl]-2-fluoro-biphenyl-4-yl}-2-oxo-oxazolidin-5-(S)-ylmethyl)-acetamide]
20 | 2 µg/mL (≈ 4.42 µM) | CC(=O)NC[C@H]1CN(c2ccc(-c3ccc(CNCc4[nH]nnc4C)cc3)c(F)c2)C(=O)O1 [Compound 4269, N-[3-(2-Fluoro-4′-{[(5-methyl-3H-[1,2,3]triazol-4-ylmethyl)-amino]-methyl}-biphenyl-4-yl)-2-oxo-oxazolidin-5-(S)-ylmethyl]-acetamide]
21 | 2 µg/mL (≈ 4.41 µM) | CC(=O)NC[C@H]1CN(c2ccc(-c3ccc(CNCc4noc(C)n4)cc3)c(F)c2)C(=O)O1 [Compound 4141, N-[3-(2-Fluoro-4′-{[(5-methyl-[1,2,4]oxadiazol-3-ylmethyl)-amino]-methyl}-biphenyl-4-yl)-2-oxo-oxazolidin-5-(S)-ylmethyl]-acetamide]
22 | 2 µg/mL (≈ 3.65 µM) | CC(=O)NC[C@H]1CN(c2ccc(-c3ccc(Cn4cnc5c(NCCCCO)ncnc54)cc3)c(F)c2)C(=O)O1 [Compound 1109, N-(3-{2-Fluoro-4′-[6-(4-hydroxy-butylamino)-purin-9-ylmethyl]-biphenyl-4-yl}-2-oxo-oxazolidin-5-(S)-ylmethyl)-acetamide]
23 | 32 µg/mL (≈ 56.6 µM) | CC(=O)NC[C@H]1CN(c2ccc(-c3ccc(CNS(=O)(=O)c4ccc(C(F)(F)F)cc4)cc3)c(F)c2)C(=O)O1 [Compound 2058, N-(3-{2-Fluoro-4′-[(4-trifluoromethyl-benzenesulfonylamino)-methyl]-biphenyl-4-yl}-2-oxo-oxazolidin-5-(S)-ylmethyl)-acetamide]
24 | 16 µg/mL (≈ 34.1 µM) | CC(=O)NC[C@H]1CN(c2ccc(-c3ccc(CNCCN4CCNC4=O)cc3)c(F)c2)C(=O)O1 [Compound 4114, N-[3-(2-Fluoro-4′-{[2-(2-oxo-imidazolidin-1-yl)-ethylamino]-methyl}-biphenyl-4-yl)-2-oxo-oxazolidin-5-(S)-ylmethyl]-acetamide]
25 | 0.5 µg/mL | CC(=O)NC[C@H]1CN(c2ccc(-c3ccc(CNCC(O)c4ccc(F)cc4)cc3)c(F)c2)C(=O)O1 (mixture of isomers) [Compound 4275, N-[3-(2-Fluoro-4′-{[2-(4-fluoro-phenyl)-2-(R/S)-hydroxy-ethylamino]-methyl}-biphenyl-4-yl)-2-oxo-oxazolidin-5-(S)-ylmethyl]-acetamide]
26 | 32 µg/mL (≈ 68.7 µM) | CC(=O)NC[C@H]1CN(c2ccc(-c3ccc(CNCCCn4ccnc4)cc3)c(F)c2)C(=O)O1 [Compound 4079, N-(3-{2-Fluoro-4′-[(3-imidazol-1-yl-propylamino)-methyl]-biphenyl-4-yl}-2-oxo-oxazolidin-5-(S)-ylmethyl)-acetamide]
27 | 2 µg/mL (≈ 4.72 µM) | CC(=O)NC[C@H]1CN(c2ccc(-c3ccc(Cn4ccnc4N)cc3)c(F)c2)C(=O)O1 [Compound 1113, N-{3-[4′-(2-Amino-imidazol-1-ylmethyl)-2-fluoro-biphenyl-4-yl]-2-oxo-oxazolidin-5-(S)-ylmethyl}-acetamide]
28 | 1 µg/mL (≈ 2.21 µM) | CC(=O)NC[C@H]1CN(c2ccc(-c3ccc(C(=O)NCc4cocn4)cc3)c(F)c2)C(=O)O1 [Compound 4205, 4′-[5-(S)-(Acetylamino-methyl)-2-oxo-oxazolidin-3-yl]-2′-fluoro-biphenyl-4-carboxylic acid (oxazol-4-ylmethyl)-amide]
29 | 0.25 µg/mL (≈ 0.473 µM) | CC(=O)NC[C@H]1CN(c2ccc(-c3ccc(CNCc4c(-c5ccccc5)noc4C)cc3)c(F)c2)C(=O)O1 [Compound 4104, N-[3-(2-Fluoro-4′-{[(5-methyl-3-phenyl-isoxazol-4-ylmethyl)-amino]-methyl}-biphenyl-4-yl)-2-oxo-oxazolidin-5-(S)-ylmethyl]-acetamide]
30 | 128 µg/mL (≈ 250 µM) | CC(=O)NC[C@H]1CN(c2ccc(-c3ccc(CS(=O)(=O)NCc4ccccc4)cc3)c(F)c2)C(=O)O1 [Compound 4170, N-{3-[4′-(Benzylsulfamoyl-methyl)-2-fluoro-biphenyl-4-yl]-2-oxo-oxazolidin-5-(S)-ylmethyl}-acetamide]
31 | 1 µg/mL (≈ 2.37 µM) | CC(=O)NC[C@H]1CN(c2ccc(-c3ccc(Cn4cc(C)cn4)cc3)c(F)c2)C(=O)O1 [Compound 1052, N-{3-[2-Fluoro-4′-(4-methyl-pyrazol-1-ylmethyl)-biphenyl-4-yl]-2-oxo-oxazolidin-5-(S)-ylmethyl}-acetamide]
